Activity calls are given as the source filed them. The rule behind the calls is not given here.
Molecular target: MEK5 PB1 domain binding to MEKK2 (MAP3K2) mutant PB1, human
Assay: inhibitors of MEK5 binding to mutant MEKK2, dose response, biochemical, bead multiplex flow cytometry (AID 1895)
Settings: Bead-based multiplex flow cytometry

| SMILES | EC50 | Ki (measured here: Ki for PB1 binding) [µM] |
| --- | --- | --- |
| CCOc1ccc(C2=C/C(=C/c3cccnc3)C(=O)O2)cc1 | > 30 µM (inactive) | – |
| CCn1cc(C(=O)O)c(=O)c2cc(F)c(N3CCN(C(=S)NC(=O)c4ccc(Br)cc4)CC3)cc21 | > 30 µM (inactive) | – |
| Cc1cc2cc(CNC(=O)NC3CCCCC3)ccc2[nH]1 | > 30 µM (inactive) | – |
| O=C(Nc1ccc(Cl)cn1)c1ccc2c(Cl)c3c(nc2c1)CCC3 | > 30 µM (inactive) | – |
| CC[C@@H](C)[C@H](CNC)NC[C@@H](Cc1cccc2ccccc12)NCCc1cccc(C(F)(F)F)c1 | > 30 µM (inactive) | – |
| C#CCOCCOCCOCCNc1nc(N2CCN(C(=O)[C@H]([C@@H](C)CC)n3cc([C@@H](N)CO)nn3)CC2)nc(N2CCN(C(=O)[C@H](Cc3cc4ccccc4[nH]3)n3cc([C@@H](N)C(C)CC)nn3)CC2)n1 (stereo partly drawn) | > 30 µM (inactive) | – |
| CCCCCc1cc(=O)oc2c(C(CCN3CCCCC3)c3ccc4c(c3)OCO4)c(OC)cc(OC)c12 (stereo not drawn) | > 30 µM (inactive) | – |
| CN(C)CCCN(C(=O)c1ccc2c(c1)CCCC2)c1nc2ccc(Cl)cc2s1 | > 30 µM (inactive) | – |
| CCOC(=O)C1=C(c2ccccc2)NC(N)=NC1c1ccc(OCc2ccc(C(=O)OC)cc2)cc1 (stereo not drawn) | 2.38 µM | – |
| CCN1C(c2ccccc2)=C(c2ccccc2)S/C1=C/C=C1\SC(=S)N(C)C1=O | inactive | 3.16 |
| C#CCOCCOCCOCCNc1nc(N2CCN(C(=O)[C@H](Cc3ccc(O)cc3)n3cc([C@@H](N)C(C)CC)nn3)CC2)nc(N2CCN(C(=O)[C@H](Cc3cc4ccccc4[nH]3)n3cc([C@@H](N)CC(C)C)nn3)CC2)n1 (stereo partly drawn) | 24.9 µM | – |
| c1ccc(CNc2nc(NCc3ccccc3)c3ccccc3n2)cc1 | > 30 µM (inactive) | – |
| N#CC(C#N)=c1ccc2c(c1)N1C(c3ccccc3)=CC(c3ccccc3)C3CCCCC31N=2 (stereo not drawn) | > 30 µM (inactive) | – |
| COc1cccc(OC)c1-c1nn2c(-c3cc(-c4ccccc4)n[nH]3)nnc2s1 | > 30 µM (inactive) | – |
| CCN1CCN(Cc2ccc(NC(=O)c3cc(NC(=O)c4cncc(-c5cccs5)c4)cc(OC)c3)cc2C(F)(F)F)CC1 | > 30 µM (inactive) | – |
| CN1C(=O)/C(=C\c2ccc(-c3ccccc3)o2)SC1=S | > 30 µM (inactive) | – |
| CN1CCN(CC(=O)N2CCn3c4c(c5cc(C6CCCCC6)ccc53)CCCC42)CC1 (stereo not drawn) | > 30 µM (inactive) | – |
